Experimental data reported in patent US8563556B2, “Crystalline forms and two solvated forms of 4-amino-5-fluoro-3-[5-(4-methylpiperazin-1-yl)-1H-benzimidazol-2-yl]quinolin-2(1H)-one lactic acid salts” (Novartis AG, priority 2008, dated 2013).
Where a name gives a salt, the structure may show the parent alone. Read-outs that look alike come from different tables or passages of the source.

How the values were obtained:
[1] = Heat of solution in water at 25° C.; assay type: physicochemical
[2] = Solubility of crystalline forms in solvents; assay type: physicochemical; conditions: for Solubility, Butanol: solvent butanol

CN1CCN(c2ccc3nc(-c4c(N)c5c(F)cccc5[nH]c4=O)[nH]c3c2)CC1 [hemi-pentahydrate, 4-Amino-5-fluoro-3-[5-(4-methylpiperazin-1-yl)-1H-benzimidazol-2-yl]quinolin-2(1H)-one lactate hemi-pentahydrate]
Heat of solution in water (endothermic) [1]: 7.17 kcal/mol | solubility ([2]; 0.1 N HCl, 25 °C, simulated gastric fluid, HCl 0.1N, 25° C., read-out: Solubility at 25° C., HCl 0.1N): 55000 µg/mL | solubility ([2]; ethanol, 25 °C, organic solvent or mixture, ethanol, 25° C., read-out: Solubility at 25° C., ethanol): 2000 µg/mL | Solubility at 25° C., water ([2]; water, 25° C.): 6200 µg/mL

CN1CCN(c2ccc3nc(-c4c(N)c5c(F)cccc5[nH]c4=O)[nH]c3c2)CC1 [Anhydrous form A, 4-amino-5-fluoro-3-[5-(4-methylpiperazin-1-yl)-1H-benzimidazol-2-yl]quinolin-2(1H)-one lactic acid salt]
Heat of solution in water (endothermic) [1]: 1.1 kcal/mol | Solubility, Acetone ([2]; solvent acetone, temperature not given): 840 µg/mL | Solubility, Butanol ([2]; temperature not given): 950 µg/mL | Solubility, Ethanol ([2]; solvent ethanol, temperature not given): 840 µg/mL | Solubility, Isopropanol ([2]; solvent isopropanol, temperature not given): 160 µg/mL | Solubility, Water ([2]; solvent water, temperature not given): 107000 µg/mL

CN1CCN(c2ccc3nc(-c4c(N)c5c(F)cccc5[nH]c4=O)[nH]c3c2)CC1 [Anhydrous form II, 4-Amino-5-fluoro-3-[5-(4-methylpiperazin-1-yl)-1H-benzimidazol-2-yl]quinolin-2(1H)-one lactate anhydrous form II]
Heat of solution in water (endothermic) ([1]; listed as Form B): 2.2 kcal/mol | solubility ([2]; acetone, organic solvent or mixture, solvent acetone, temperature not given, read-out: Solubility, Acetone): 510 µg/mL | solubility ([2]; ethanol, organic solvent or mixture, solvent ethanol, temperature not given, read-out: Solubility, Ethanol): 710 µg/mL | solubility ([2]; isopropanol, organic solvent or mixture, solvent isopropanol, temperature not given, read-out: Solubility, Isopropanol): 80 µg/mL | Solubility, Butanol ([2]; temperature not given): 340 µg/mL | solubility ([2]; water, solvent water, temperature not given, read-out: Solubility, Water): 68000 µg/mL
